Paper PMC5608556, “Photo-affinity labelling and biochemical analyses identify the target of trypanocidal simplified natural product analogues” (PLoS Neglected Tropical Diseases, 2017)

What was measured:
[1] = biological target: T1, FoF1-ATP synthase F1 α-subunit (GFP-PTP tagged) (Trypanosoma brucei brucei, UniProt Q9GS23); assay: In vivo photo-affinity labelling of GFP-PTP-tagged F1 α-subunit, Cy5.5 detection; format: binding; settings: 50 μM, in vivo pulse-chase, UV 365 nm
T1 construct: expressed in transfected cells; host or cells: procyclic-form T. brucei strain 29-13, stably transfected with MfeI-linearised pC-F1α-GFP-PTP (recombination into the endogenous gene)
Experimental: Fig 7 B-THP-Ts bind to C-terminal GFP-PTP tagged F1 α- and β- subunits. (A) Stably transfected PF T. brucei cells endogenously-expressing F1 α-GFP-PTP or F1 β-GFP-PTP were loaded with MitoTracker Red CMXros (red) and DAPI (blue) and imaged microscopically to determine localisation of GFP-PTP-tagged protein. […] (B) Following in vivo photo-affinity labelling with 50 μM compound 3 or compound 1 (negative control), GFP-PTP-tagged F1 α- and β-subunits were affinity purified and Cy5.5 clicked on. Proteins were separated by SDS-PAGE and a western blot was performed with mouse anti-GFP / anti-mouse-DyLight 800. […]
Pulse-chase in vivo photo-affinity labelling with bi-functional compound 3 (and lead compound 1 as negative control) was performed on cells from both cell lines expressing GFP-PTP-tagged F1 α- or β-subunits. Tagged subunits were immobilised on IgG-sepharose beads, purified, and Cy5.5 fluorescent reporter clicked on, and proteins were detected by western blotting (Fig 7B). […] In trypanosomatids (but not in other organisms) the native α-subunit is expressed as a 63 KDa protein which is then cleaved by an unknown protease to 20 KDa N-terminal and 43 KDa C-terminal domains, both of which remain associated with the FoF1-ATP synthase complex. […]

Vero = assay: Toxicity (EC50) in Vero cells; format: cell-based; settings: Chlorocebus sabaeus, footnote b, read-out: EC50 values Mammal Vero
From the text: Fig 1 Labelling and detection of B-THP-T target(s). (A) Structures of chamuvarinin and simplified analogues thereof as probes used in this study and their respective toxicity in selected cell lines. Bi-functional compound 3 contains a diazirine (blue) to cross-link the compound to its target and an alkyne handle (red) to which an azide-containing reporter probe can be added. Mono-functional compound 2 contains the diazirine to cross-link to its target but lacks the alkyne handle and cannot be appended with an azide reporter probe. Lead B-THP-T, compound 1, lacks both diazirine and alkyne. The additional functional groups on compounds 2 and 3 are minor alterations, which have little effect on inhibitor potency. (B) Overview of the in vivo pulse-chase photo-affinity labelling procedure. B-THP-T were incubated with live PF T. brucei cells and trafficked to their targets. Following UV-irradiation, only compounds containing a diazirine (i.e. compounds 2 and 3) could cross-link with target proteins. The subsequent “click reaction” appended the conjugated B-THP-T with a reporter probe as long as an alkyne handle was present (i.e. on compound 3). Refer to the experimental section for details. (C) Detection of Cy5.5-tagged proteins following photo-affinity labelling. Proteins were separated by SDS-PAGE and conjugated Cy5.5 was detected at 700 nm. […]

T1 sequence (Q9GS23 160-584): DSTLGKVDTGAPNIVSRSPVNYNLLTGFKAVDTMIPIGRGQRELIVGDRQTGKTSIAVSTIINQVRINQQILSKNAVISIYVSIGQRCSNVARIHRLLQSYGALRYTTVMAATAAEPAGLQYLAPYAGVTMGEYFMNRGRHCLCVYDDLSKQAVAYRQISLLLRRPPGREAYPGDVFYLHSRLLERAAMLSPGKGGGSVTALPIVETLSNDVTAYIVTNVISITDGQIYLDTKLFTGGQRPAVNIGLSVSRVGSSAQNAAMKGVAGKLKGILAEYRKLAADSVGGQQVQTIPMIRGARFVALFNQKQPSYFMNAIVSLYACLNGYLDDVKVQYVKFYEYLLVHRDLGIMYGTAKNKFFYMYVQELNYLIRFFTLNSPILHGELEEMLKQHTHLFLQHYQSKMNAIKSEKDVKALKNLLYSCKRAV

## C#CCNC(=O)CCC[C@H]1CC2(C[C@@H](Cn3cc([C@@H]4CCC[C@H](CCCCOCc5ccccc5)O4)nn3)O1)N=N2 [Compound 3]
[1]
  UV-conjugation (Cy5.5 labelling at 700 nm) to F1 α-GFP-PTP: can UV-conjugate
Vero
  EC50: 21.3 ± 2 µM
